This note sets out measurements from patent publication US10647680B2, “Urea compound, preparation method therefor and medical use thereof” (Ancureall Pharmaceutical (Shanghai) Co., Ltd., priority 2016, dated 2020).

Molecules are shown by their SMILES.

One assay concerns Calu-3 (HER2/ErbB2 amp). The experiment in a line: In vitro growth inhibition (GI50), Calu-3. Type of assay: cell-based. As to conditions: Homo sapiens. An excerpt:
(§1) Tumor cell line is an effective cell model for studying the inhibition of tumor cell growth or proliferation in vitro. In the present invention, a representative tumor cell line was selected to determine the cell growth inhibition activity of the present compound. All cell lines used were from ATCC, DSMZ, and the Cell Bank of the Chinese Academy of Sciences. Cell culture conditions and methods were in accordance with the requirements of each cell line. Cells were subcultured in vitro for no more than 3 passages each time, and as required, single-clone purification and identification of cell lines could be carried out.
(§2) The cell culture media used were RPMI1640 (Gibco), MEM (Gibco), McCOY'S5A (Gibco), and IMDM (Gibco). The complete medium was prepared by supplement with 5˜20% fetal calf serum (Gibco), 1% double-antibiotics (10000 units/mL penicillin and 10000 units/mL), 2 mM glutamine or 1 mM sodium pyruvate, respectively.
Human gastric cancer cell line NCI-N87 (HER2/ErbB2 amp, ATCC), human breast cancer cell line HCC1954 (HER2/ErbB2 amp, ATCC) and ZR-75-30 (HER2/ErbB2 amp, ATCC), human adenocarcinoma cell line AU565 (HER2/ErbB2 amp, ATCC), human lung squamous cell carcinoma cell line NCI-H2170 (HER2/ErbB2 amp, ATCC), human bronchioalveolar adenocarcinoma cell line NCI-H1781 (HER2/ErbB2 Ins G776V,C mutant type, ATCC) were cultured with a 1×RPMI1640 complete medium (10% FBS), respectively. Human lung adenocarcinoma cell line Calu-3 (HER2/ErbB2 amp, ATCC) was cultured with 1×MEM, 10% FBS, 1% double antibody, 1% NEAA (Gibco), 2 mM glutamine and 1 mM sodium pyruvate. The human breast cancer cell line SK-BR-3 (HER2/ErbB2 amp, ATCC) was cultured with a McCOY'S5A complete medium (10% FBS).
(§3) Adherent cells were digested with 0.25% pancreatin-EDTA (Gibco). The suspension cells were collected by centrifugation. The supernatant was discarded and the cell pellet was resuspended and counted. Different cell concentrations (5˜10×10^4 cells/mL) were prepared according to the growth cycle of each cell line and then seeded on a 96-well plate (Corning), 100 μL/well. The cells were incubated overnight at 37° C., 5% CO2. The compounds were added to the cells on the second day with 2 wells in parallel. The final concentration of organic solvent shall not exceed 1%. The cells were continually incubated for 3 to 5 days, and then subjected to MTT assay.
(§4) The compound of the present invention and the control compound were dissolved in DMSO (Sigma) respectively, with the purity of more than 98%. The compound was stored in a concentration of 10 mM at −20° C. and diluted to 2- or 10-fold series prior to use.
(§5) Dojindo CCK8 reagent kit was used as MTT assay. THERMO […] FC meter was used as microplate reader.
(§6) For adherent cells, culture medium was removed and immediately replaced with the fresh prepared medium which contains 10% CCK8 reagent (100 μL/well). For the suspension cells, CCK8 was directly added to 10% of the final concentration. The cells were continually incubated for 1˜4 h. When a dark yellow color could be observed in the solvent control wells, the absorbance value at OD450 nm was measured and the cell growth rate was calculated according to the following formula: Cell Growth Rate (%)=100*(T−T0)/(C−T0) T=optical density of drug treatment cell well—optical density of blank control well; T0=optical density of cell well before drug treatment—optical density of blank control well; C=optical density of cell well of solvent control group—optical density of blank control well. The concentration value of 50% inhibition of cell growth (GI50) was calculated according to the drug concentration and cell growth rate curve. The experiment was independently repeated 1˜3 times, and subject to biological statistical analysis. 4. Experimental Results
Tumor cell growth inhibition test was performed by selecting representative compounds (compounds 4, 11, 12, 16, 27, 68, 71, 77, 79, 89 and 116 of the present invention). […]

The test system of assay [1] is NCI-H2228 (expressing EML4-ALK fusion gene). The assay can be described thus: In vitro growth inhibition (GI50), NCI-H2228. It is filed as cell-based. As to conditions: Homo sapiens.
Text: as §1, §2
Human non-small cell lung cancer cell line NCI-H2228 (expressing EML4-ALK fusion gene, ATCC) and human anaplastic large cell lymphoma cell line Karpas-299 (expressing NPM-ALK fusion gene, ATCC) were cultured in complete medium comprising 1×RPMI1640 (10% FBS), respectively. Neuroblastoma cell line SH-SY5Y (expressing ALK F1174L mutant protein, Shanghai Cell Bank, Chinese Academy of Sciences) was cultured in MEM complete medium (1×MEM, 10% FBS, 1% NEAA, 1 mM sodium pyruvate).
as §3, §4, §5, §6
Tumor cell growth inhibition test was performed by selecting representative compounds (compounds 4, 11, 12, 16, 27, 68, 71, 77, 79, 89 and 116 of the present invention). The initial concentration of the compound was 5,000 nM, then it was serially diluted by 2-fold or 10-fold to 0.01 nM. The GI50 value of each test compound was calculated according to the GI50 assay and calculation method. The experiments were repeated 1 to 3 times, and data were subjected to biological statistical analysis.

For the compound `CC(C)(C)c1cc(NC(=O)Nc2ccc(-n3cnc4cc(O)ccc43)cc2)no1` [Compound 4, 1-(5-tert-butyl-isoxazol-3-yl)-3-[4-(5-hydroxy-benzimidazol-1-yl)-phenyl]-urea], the concentration for 50% growth inhibition (GI50) (with Calu-3 (HER2/ErbB2 amp); in assay [1]) was greater than 2500 nM each time.
For `CC(C)(C)c1cc(NC(=O)Nc2ccc(-n3cnc4cc(OCCO)ccc43)cc2)no1` [Compound 11, 1-(5-tert-butyl-isoxazol-3-yl)-3-{4-[5-(2-hydroxy-ethoxyl)-benzimidazol-1-yl]-phenyl]-urea], the GI50 (in the assay on Calu-3 (HER2/ErbB2 amp); in assay [1]) was greater than 2500 nM in each case.
For the compound `CC(C)(C)c1cc(NC(=O)Nc2ccc(-n3cnc4cc(OCCN5CCOCC5)ccc43)cc2)no1` [Compound 16, 1-(5-tert-butyl-isoxazol-3-yl)-3-{4-[5-(2-morpholin-4-yl-ethoxyl)-benzimidazol-1-yl]-phenyl}-urea], the GI50 (with Calu-3 (HER2/ErbB2 amp); in assay [1]) was greater than 2500 nM each time.
Regarding `CC(C)(C)c1cc(NC(=O)Nc2ccc(-n3cnc4ccc(OCCN5CCOCC5)cc43)cc2)no1` [Compound 27, 1-(5-tert-butyl-isoxazol-3-yl)-3-{4-[6-(2morpholin-4-yl-ethoxyl)-benzimidazol-1-yl]-phenyl}-urea], the 50% growth inhibitory concentration (GI50) (in the assay on Calu-3 (HER2/ErbB2 amp); in assay [1]) was greater than 2500 nM in each case.
Turning to `CC(C)(C)c1cc(NC(=O)Nc2ccc(-n3cnc4ccccc43)cc2)[nH]n1` [Compound 68, 1-(4-benzimidazol-1-yl-phenyl)-3-(5-tert-butyl-2H-pyrazol-3-yl)-urea], the GI50 (with Calu-3 (HER2/ErbB2 amp); in assay [1]) was greater than 2500 nM each time.
`COc1ccc2c(c1)ncn2-c1ccc(NC(=O)Nc2cc(C(C)(C)C)n[nH]2)cc1` [Compound 71, 1-(5-tert-butyl-2H-pyrazol-3-yl)-3-[4-(5-methoxyl-benzimidazol-1-yl)-phenyl]-urea]: the GI50 (with Calu-3 (HER2/ErbB2 amp); in assay [1]) was greater than 2500 nM throughout.
Take `COCCOc1ccc2c(c1)ncn2-c1ccc(NC(=O)Nc2cc(C(C)(C)C)n[nH]2)cc1` [Compound 77, 1-(5-tert-butyl-2H-pyrazol-3-yl)-3-{4-[5-(2-methoxyl-ethoxyl)-benzimidazol-1-yl]-phenyl}-urea]: the GI50 (with Calu-3 (HER2/ErbB2 amp); in assay [1]) was greater than 2500 nM throughout.
Consider `CC(C)(C)c1cc(NC(=O)Nc2ccc(-n3cnc4cc(OCCO)ccc43)cc2)[nH]n1` [Compound 79, 1-(5-tert-butyl-2H-pyrazol-3-yl)-3-{4-[5-(2-hydroxy-ethoxyl)-benzimidazol-1-yl]-phenyl]urea], for which the GI50 (in the assay on Calu-3 (HER2/ErbB2 amp); in assay [1]) was greater than 2500 nM each time.
On to `CC(C)(C)c1cc(NC(=O)Nc2ccc(-n3cnc4cc(OCCN5CCOCC5)ccc43)cc2)[nH]n1` [Compound 89, 1-(5-tert-butyl-2H-pyrazol-3-yl)-3-{4-[5-(2-morpholin-4-yl-ethoxyl)-benzimidazol-1-yl]-phenyl}-urea], for which the concentration for 50% growth inhibition (GI50) (in the assay on Calu-3 (HER2/ErbB2 amp); in assay [1]) was greater than 2500 nM in each case.
In the case of `CC(C)(C)c1cc(N)n(C(=O)Nc2ccc(-n3cnc4ccccc43)cc2)n1` [Compound 116, 5-amino-3-tert-butyl-pyrazol-1-carboxylic acid (4-benzimidazol-1-yl-phenyl)-amide], the concentration for 50% growth inhibition (GI50) (with Calu-3 (HER2/ErbB2 amp); in assay [1]) was greater than 2500 nM each time.
